Assay results reported in patent publication US9512120B2, “Microbicidally active imidazopyridine derivatives” (Syngenta Participations AG, priority 2013, dated 2016).

Key:
[1] = system: Plasmopara viticola; assay: Plasmopara viticola / grape / leaf disc preventative; assay type: in vivo; settings: foliar, grape vine leaf disks, inoculated 1 day after application, assessed 6-8 days after application, read-out: control of Plasmopara viticola (percent disease control compared to untreated)
[2] = system: Puccinia recondita f. sp. Tritici; assay: Puccinia recondita f. sp. tritici / wheat / leaf disc preventative (brown rust); assay type: in vivo; settings: foliar, wheat leaf segments cv Kanzler, inoculated 1 day after application, assessed 7-9 days after application, read-out: control of Puccinia recondita f. sp. Tritici (percent disease control compared to untreated)
Summary of the method: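 Leaf segments of wheat cv Kanzler on agar were sprayed with formulated compound at 200 ppm and inoculated with spores 1 day later. Incubation was at 19° C, 75% relative humidity and 12/12 h light/dark. Activity was scored 7-9 days after application as percent disease control versus untreated.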

[3] = system: Phaeosphaeria nodorum (Septoria nodorum); assay: Phaeosphaeria nodorum (Septoria nodorum) / wheat / leaf disc preventative (glume blotch); assay type: in vivo; settings: Parastagonospora nodorum, foliar, wheat leaf segments cv Kanzler, inoculated 2 days after application, assessed 5-7 days after application, read-out: control of Phaeosphaeria nodorum (percent disease control compared to untreated)
Summary of the method: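 Wheat leaf segments (cv Kanzler) on agar sprayed with compound at 200 ppm, inoculated with spores 2 days later. Incubated at 20° C., 75% relative humidity, 12/12 h light/dark; percent disease control versus untreated scored 5-7 days after application.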

[4] = system: Pyrenophora teres; assay: Pyrenophora teres / barley / leaf disc preventative (net blotch); assay type: in vivo; settings: foliar, barley leaf segments cv Hasso, inoculated two days after application, assessed 5-7 days after application, read-out: control of Pyrenophora teres (disease control compared to untreated)
Summary of the method: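 Barley cv Hasso leaf segments on agar sprayed with compound at 200 ppm, inoculated with spores two days later. Kept at 20 °C, 65% RH, 12/12 h light; disease control versus untreated scored 5-7 days after application.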

[5] = system: Botryotinia fuckeliana (Botrytis cinerea); assay: Botryotinia fuckeliana (Botrytis cinerea) / liquid culture (gray mould); assay type: cell-based; settings: Vogels broth, 24° C., 3-4 days after application, read-out: control of Botryotinia fuckeliana (inhibition of growth, photometric)
Summary of the method: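 Botrytis cinerea conidia in Vogels broth were added to test compound applied from DMSO at 200 ppm. Incubation at 24 °C; growth inhibition read photometrically 3-4 days after application.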

[6] = system: Glomerella lagenarium (Colletotrichum lagenarium); assay: Glomerella lagenarium (Colletotrichum lagenarium) / liquid culture (anthracnose); assay type: cell-based; settings: Colletotrichum orbiculare, PDB, 24° C., 3-4 days after application, read-out: control of Glomerella lagenarium (inhibition of growth, photometric)
Summary of the method: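 Cryopreserved conidia suspended in potato dextrose broth were added to compound in DMSO applied at 200 ppm. Plates incubated at 24° C; growth inhibition read photometrically 3-4 days after application.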

[7] = system: Mycosphaerella arachidis (Cercospora arachidicola); assay: Mycosphaerella arachidis (Cercospora arachidicola) / liquid culture (early leaf spot); assay type: cell-based; settings: PDB, 24° C., 4-5 days after application, read-out: control of Mycosphaerella arachidis (inhibition of growth, photometric)
Description: Mycosphaerella Arachidis (Cercospora arachidicola)/Liquid Culture (Early Leaf Spot): Conidia of the fungus from cryogenic storage were directly mixed into nutrient broth (PDB potato dextrose broth). After placing a DMSO solution of test compound into a 96-well microtiter plate at an application rate of 200 ppm, the nutrient broth containing the fungal spores was added. The test plates are incubated at 24° C. and the inhibition of growth was determined photometrically 4-5 days after application.

[8] = system: Mycosphaerella graminicola (Septoria tritici); assay: Mycosphaerella graminicola (Septoria tritici) / liquid culture (Septoria blotch); assay type: cell-based; settings: Zymoseptoria tritici, PDB, 24° C., 4-5 days after application, read-out: control of Mycosphaerella graminicola (inhibition of growth, photometric)
Summary of the method: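 Cryo-stored conidia in potato dextrose broth were added to compound in DMSO at 200 ppm in microtiter plates. Plates were incubated at 24 °C and growth inhibition was measured photometrically 4–5 days after application.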

[9] = system: Gaeumannomyces graminis; assay: Gaeumannomyces graminis / liquid culture (take-all of cereals); assay type: cell-based; settings: PDB, 24° C., 4-5 days after application, read-out: control of Gaeumannomyces graminis (inhibition of growth, photometric)
Summary of the method: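 Mycelial fragments in potato dextrose broth were exposed to compound from DMSO at 200 ppm in microtiter plates. Incubation at 24 °C; growth inhibition read photometrically 4-5 days after application.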

[10] = system: Thanatephorus cucumeris (Rhizoctonia solani); assay: Thanatephorus cucumeris (Rhizoctonia solani) / liquid culture (foot rot, damping-off); assay type: cell-based; settings: PDB, 24° C., 3-4 days after application, read-out: control of Thanatephorus cucumeris (inhibition of growth, photometric)
Summary of the method: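 Mycelial fragments in potato dextrose broth exposed to test compounds at 200 ppm (from DMSO solution), incubated at 24° C. Growth inhibition read photometrically 3-4 days after application.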

[11] = system: Monographella nivalis (Microdochium nivale); assay: Monographella nivalis (Microdochium nivale) / liquid culture (foot rot cereals); assay type: cell-based; settings: PDB, 24° C., 4-5 days after application, read-out: control of Monographella nivalis (inhibition of growth, photometric)
Summary of the method: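 Cryostored conidia in potato dextrose broth were added to test compound dispensed from DMSO at 200 ppm. Plates were kept at 24° C, and growth inhibition was read photometrically 4-5 days after application.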

[12] = system: Sclerotinia sclerotiorum; assay: Sclerotinia sclerotiorum liquid culture (cottony rot / white mold); assay type: cell-based; settings: PDB, 24° C., 3-4 days after application, read-out: control of Sclerotinia sclerotiorum (inhibition of growth, photometric)
Summary of the method: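 Mycelia fragments of Sclerotinia sclerotiorum in potato dextrose broth were added to compound in DMSO. Cultures incubated at 24° C; growth inhibition determined photometrically 3-4 days after application.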

[13] = system: Blumeria graminis f. Sp. Tritici (Erysiphe graminis f. Sp. Tritici); assay: Blumeria graminis f. sp. tritici / wheat / leaf disc preventative (powdery mildew on wheat); assay type: in vivo; settings: foliar, wheat leaf segments cv. Kanzler, inoculated 1 day after application, assessed 6-8 days after application, read-out: control of Blumeria graminis (percent disease control compared to untreated)
Description: Blumeria graminis f. Sp. Tritici (Erysiphe graminis f. Sp. Tritici)/Wheat/Leaf Disc Preventative (Powdery Mildew on Wheat):
Wheat leaf segments cv. Kanzler were placed on agar in a 24-well plate and sprayed with the formulated test compound diluted in water at an application rate of 200 ppm. The leaf disks were inoculated by shaking powdery mildew infected plants above the test plates 1 day after application. The inoculated leaf disks were incubated at 20° C. and 60% relative humidity under a light regime of 24 h darkness followed by 12 h/12 h (dark/light) in a climate chamber and the activity of a compound was assessed as percent disease control compared to untreated when an appropriate level of disease damage appears on untreated check leaf segments (6-8 days after application). The following compounds gave at least 80% control of Blumeria graminis at 200 ppm when compared to untreated control leaf disks under the same conditions, which show extensive disease development: 2, 13, 23, 50, 59, 61, 67, 75, 85, 86, 89, 90, 93, 102, 103, 107, 134, 136, 137, 138, 139, 141, 145, 151, 153, 154, 163, 173, 174

| SMILES | pest or weed control at 200 ppm [1] [%] | pest or weed control at 200 ppm [2] [%] | pest or weed control at 200 ppm [3] [%] | pest or weed control at 200 ppm [4] [%] | inhibition at 20 ppm [5] [%] | inhibition at 20 ppm [6] [%] | inhibition at 20 ppm [7] [%] | inhibition at 20 ppm [8] [%] | inhibition at 20 ppm [9] [%] | inhibition at 20 ppm [10] [%] | inhibition at 20 ppm [11] [%] | inhibition at 20 ppm [12] [%] | pest or weed control at 200 ppm [13] [%] | melting point [°C] |
| --- | --- | --- | --- | --- | --- | --- | --- | --- | --- | --- | --- | --- | --- | --- |
| CCn1c(-n2ncnc2N)nc2cncc(-c3cccc4c3OC(F)(F)O4)c21 [Compound 48, 2-[7-(2,2-difluoro-1,3-benzodioxol-4-yl)-1-ethylimidazo[4,5-c]pyridin-2-yl]-1,2,4-triazol-3-amine] | ≥ 80 | ≥ 80 | ≥ 80 | ≥ 80 | ≥ 80 | ≥ 80 | ≥ 80 | ≥ 80 | ≥ 80 | ≥ 80 | ≥ 80 | ≥ 80 | – | – |
| CCn1c(-n2ncnc2N)nc2cncc(C3=CCN(C(=O)OC(C)(C)C)CC3)c21 [Compound 107, tert-butyl 4-[2-(5-amino-1,2,4-triazol-1-yl)-1-ethylimidazo[4,5-c]pyridin-7-yl]-3,6-dihydro-2H-pyridine-1-carboxylate] | – | – | – | – | – | – | – | – | – | – | – | – | ≥ 80 | 183 to 186 |
| C=CCON=C(C)c1cncc2nc(-n3ncnc3N)n(CC)c12 [Compound 138] | – | – | – | ≥ 80 | ≥ 80 | ≥ 80 | – | ≥ 80 | ≥ 80 | ≥ 80 | ≥ 80 | – | ≥ 80 | 142 to 146 |
| CCn1c(-n2ncnc2N)nc2cncc(C(C)=NOCC3CC3)c21 [Compound 141] | – | – | – | ≥ 80 | ≥ 80 | ≥ 80 | ≥ 80 | ≥ 80 | ≥ 80 | ≥ 80 | – | – | ≥ 80 | 151 to 163 |
| CCn1c(-n2ncnc2N)nc2cncc(-c3ccc(C)cc3C)c21 [Compound 45, 2-[7-(2,4-dimethylphenyl)-1-ethylimidazo[4,5-c]pyridin-2-yl]-1,2,4-triazol-3-amine] | ≥ 80 | ≥ 80 | ≥ 80 | ≥ 80 | ≥ 80 | – | ≥ 80 | ≥ 80 | – | ≥ 80 | – | – | – | – |
| CCn1c(-n2ncnc2N)nc2cncc(-c3cncnc3)c21 [Compound 50, 2-(1-ethyl-7-pyrimidin-5-ylimidazo[4,5-c]pyridin-2-yl)-1,2,4-triazol-3-amine] | – | – | – | – | – | – | – | – | – | – | – | – | ≥ 80 | – |
| CCn1c(-n2ncnc2N)nc2cncc(C(C)=NOCC=C(Cl)Cl)c21 [Compound 155] | ≥ 80 | ≥ 80 | ≥ 80 | ≥ 80 | ≥ 80 | ≥ 80 | ≥ 80 | ≥ 80 | – | ≥ 80 | ≥ 80 | ≥ 80 | – | – |
| CCn1c(-n2ncnc2N)nc2cncc(C3CC(c4ccccc4)=NO3)c21 (stereo not drawn) [Compound 109, 2-[1-ethyl-7-(3-phenyl-4,5-dihydro-1,2-oxazol-5-yl)imidazo[4,5-c]pyridin-2-yl]-1,2,4-triazol-3-amine] | ≥ 80 | ≥ 80 | – | ≥ 80 | ≥ 80 | – | – | ≥ 80 | ≥ 80 | ≥ 80 | – | – | – | 201 to 209 |
| CCON=C(C)c1cncc2nc(-n3ncnc3N)n(CC)c12 [Compound 134] | – | ≥ 80 | – | ≥ 80 | ≥ 80 | – | ≥ 80 | ≥ 80 | ≥ 80 | ≥ 80 | ≥ 80 | – | ≥ 80 | 160 to 165 |
| CCn1c(-n2ncnc2N)nc2cncc(C(C)=NOCc3ccc(F)cc3)c21 [Compound 135] | ≥ 80 | ≥ 80 | – | ≥ 80 | ≥ 80 | – | – | ≥ 80 | ≥ 80 | ≥ 80 | – | – | – | 175 to 187 |
| CCn1c(-n2ncnc2N)nc2cncc(C(C)=NOCc3ccccc3)c21 [Compound 165] | ≥ 80 | ≥ 80 | ≥ 80 | ≥ 80 | ≥ 80 | ≥ 80 | – | ≥ 80 | – | ≥ 80 | ≥ 80 | ≥ 80 | – | – |
| CCn1c(-n2ncnc2N)nc2cncc(C(C)=NO)c21 [Compound 136, 1-[2-(5-amino-1,2,4-triazol-1-yl)-1-ethyl-imidazo[4,5-c]pyridin-7-yl]ethanone oxime] | – | – | – | ≥ 80 | – | ≥ 80 | – | – | ≥ 80 | – | – | – | ≥ 80 | 228 to 240 |
| CCn1c(-n2ncnc2N)nc2cncc(/C(C)=N\OCC(C)C)c21 [Compound 161] | ≥ 80 | ≥ 80 | – | ≥ 80 | ≥ 80 | ≥ 80 | ≥ 80 | ≥ 80 | – | ≥ 80 | – | ≥ 80 | – | – |
